Source: patent US7879817B2, “Hyaluronic acid derivative and drug containing the same” (priority 2004, dated 2011)

Key:
[1] = Appearance of the 1.0% by weight solution in PBS; format: physicochemical; conditions: dissolved in PBS to 1.0% by weight
[2] = Filter pass through test; format: physicochemical; conditions: 1.0% by weight in PBS, 0.45 μm porous filter (25 mm in diameter), 24° C., 5.0 kg/cm^2
Procedure: PBS in which each substance to be tested was dissolved to a concentration of 1.0% by weight was prepared. At a temperature of 24° C. under pressure of 5.0 kg/cm^2, each solution of the substances to be tested prepared in the following examples was passed through a 0.45 μm porous filter (25 mm in diameter), and the passed amount (ml) per 1 minute was measured A case in which 2 ml or more was passed is shown by “A”, and a case in which less than 2 ml was passed by “B”, and a case in which none passed by “C”.

[3] = test system: 1% silver nitrate-induced pain model; assay: 1% silver nitrate-induced pain model in rats
From the text: As General anesthesia, inhalation of isoflurane (Forane (registered trade mark), Dainippon Pharmaceutical Co., Ltd., concentration 3.0%, flow rate 2.0 liters/min) filled in a small animal anesthetizer (TK-4, manufactured by BioMachinery Co., Ltd.) was employed.
Rats (Crj:SD (SPF), male, 6-weeks-old) were fixed in the supine position under ether anesthesia, and a wide area around the knee joint of the left hind paw was shaved with an electric clipper. After disinfecting the area around the joint by spraying 70% alcohol, 1% silver nitrate solution was administered into the knee joint cavity of the left hind paw at a dose of 50 μl/joint using a 29 G needle-tipped syringe for insulin use (manufactured by Terumo Corp.).
Regarding the administration method, as in the case of algesic substances, the area around the joint was disinfected by spraying 70% alcohol under inhalation anesthesia by isoflurane, and each test substance was administered into the knee joint cavity of the left hind paw at a dose of […] using a 29 G needle-tipped syringe for insulin use (n=5).
The walking of each group was visually observed and scored by using the following pain score table which was figured walking in score under blinded conditions.
Score • 0: Normal (includes nearly normal) • 1: Mild claudication • 2: Severe claudication • 3: Walking on three legs
In addition, the weight loading on the silver nitrate-injected paw (left hind paw) was measured by using a weighting activity analgesia meter (manufactured by Tokken Inc.), and the weight loading rate was calculated by dividing the measured value by the body weight.
Test substances were orally administered by using a sonde for oral administration to rat (manufactured by Fuchigami Kikai) at a dose of 1 ml/head.
In FIG. 6, the “Diclofenac Na (p.o.) 50 mg/kg” corresponds to the above-described (i) (high dose group), and the “Diclofenac Na (p.o.) 1 mg/kg” corresponds to the above-described (ii) (low dose group).

[4] = Sustained release property in the rabbit knee joint (residual ratio in synovial fluid and synovium); conditions: intra-articular
[5] = intra-articular injection 24 hours after 1% silver nitrate, in comparison with PBS

Aminopropanol-felbinac-Introduced Hyaluronic Acid [Example 13]
appearance of the solution [1]: colorless and transparent liquid | filter pass through test (passed amount per 1 minute) [2]: A (2 ml or more was passed)

Aminopropanol-diclofenac-Introduced Sodium Hyaluronate (DS 4.3%) [Example 35]
analgesic effect (pain score, walking) [3, 5]: showed analgesic effect

Aminopropanol-acetylsalicylic Acid-Introduced Sodium Hyaluronate [Example 11]
appearance of the solution [1]: colorless and transparent liquid | filter pass through test (passed amount per 1 minute) [2]: A (2 ml or more was passed)

Aminopropanol-diclofenac-Introduced Sodium Hyaluronate (65 kDa) Sodium (DS 17.1%) [Example 37]
analgesic effect (pain score, walking) [3, 5]: showed diminished analgesic effect in comparison with the case of the molecular weight of 800,000

O=C(O)Cc1ccccc1Nc1c(Cl)cccc1Cl [diclofenac sodium, reference compound]
analgesic effect (pain score, walking) [3, 5]: did not show significant effect in comparison with PBS | adverse effects observed ([3]; oral administration, high dose 50 mg/kg): positive fecal occult blood reaction, jaundice-like symptom and body weight loss were observed from the next day | analgesic effect (pain score, walking) ([3]; oral administration, high dose 50 mg/kg (1% suspension in 10% gum arabic, 1 ml/head)): showed analgesic effect | analgesic effect (pain score, walking) ([3]; oral administration, low dose 1 mg/kg (0.02% suspension in 10% gum arabic, 1 ml/head)): the effect was not found in comparison with the PBS intra-articular injection group

Aminopropanol-diclofenac-Introduced Sodium Hyaluronate (DS 9.7%) [Example 36]
analgesic effect (pain score, walking) [3, 5]: showed a remarkable analgesic effect in comparison with PBS

Aminopropanol-ibuprofen-Introduced Sodium Hyaluronate [Example 7]
filter pass through test (passed amount per 1 minute) [2]: A (2 ml or more was passed)

CC(C(=O)O)c1cccc(C(=O)c2ccccc2)c1 (centres unmarked) [KP, ketoprofen]
time until KP disappeared from the synovial fluid and synovium [4]: ≤ 6 h | time until KP disappeared from the synovium [4]: ≤ 6 h

Aminopropanol-mefenamic Acid-Introduced Hyaluronic Acid [Example 17]
appearance of the solution [1]: colorless and transparent liquid | filter pass through test (passed amount per 1 minute) [2]: A (2 ml or more was passed)

Aminopropanol-diclofenac-Introduced Sodium Hyaluronate [Example 19]
analgesic effect (pain score, walking) ([3]; intra-articular injection 24 hours after 1% silver nitrate, in comparison with PBS, listed as DS 18.2%): showed a remarkable analgesic effect in comparison with PBS | analgesic effect (pain score, walking) ([3]; intra-articular injection 24 hours after 1% silver nitrate, in comparison with PBS, listed as diclofenac-introduced hyaluronic acid derivative): showed the analgesic effect after the administration

Aminoethanol-diclofenac-Introduced Sodium Hyaluronate (DS 14.7%) [Example 39]
analgesic effect (pain score, walking) [3, 5]: showed remarkable analgesic effect

Aminopropanol-flurbiprofen-Introduced Sodium Hyaluronate [Example 9]
appearance of the solution [1]: colorless and transparent liquid | filter pass through test (passed amount per 1 minute) [2]: A (2 ml or more was passed)

Diaminopropane-diclofenac-Introduced Sodium Hyaluronate (DS 18.1%) [Example 41]
analgesic effect (pain score, walking) [3, 5]: had no effect on the test system of this example

Aminopropanol-fenbufen-Introduced Hyaluronic Acid [Example 15]
filter pass through test (passed amount per 1 minute) [2]: A (2 ml or more was passed)
